Test [1] deals with T1, Thromboxane A2 receptor (Homo sapiens, UniProt P21731).
T1 sequence (P21731 whole entry): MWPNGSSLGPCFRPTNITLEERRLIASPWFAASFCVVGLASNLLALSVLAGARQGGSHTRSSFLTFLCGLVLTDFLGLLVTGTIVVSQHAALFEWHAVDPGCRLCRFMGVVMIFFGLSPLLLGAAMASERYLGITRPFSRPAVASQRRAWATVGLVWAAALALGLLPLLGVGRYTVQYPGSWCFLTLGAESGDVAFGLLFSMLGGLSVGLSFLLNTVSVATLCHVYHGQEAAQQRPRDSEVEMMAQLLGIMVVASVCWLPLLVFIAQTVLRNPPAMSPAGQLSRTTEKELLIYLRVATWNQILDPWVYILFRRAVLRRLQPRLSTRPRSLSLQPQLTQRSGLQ
Format: functional, cell-based.

Test [2] addresses T1, Thromboxane A2 receptor. Type of test: functional.
The target of test [3] is T2, 5-hydroxytryptamine receptor 1A (Homo sapiens, UniProt P08908).
T2 sequence (P08908 whole entry): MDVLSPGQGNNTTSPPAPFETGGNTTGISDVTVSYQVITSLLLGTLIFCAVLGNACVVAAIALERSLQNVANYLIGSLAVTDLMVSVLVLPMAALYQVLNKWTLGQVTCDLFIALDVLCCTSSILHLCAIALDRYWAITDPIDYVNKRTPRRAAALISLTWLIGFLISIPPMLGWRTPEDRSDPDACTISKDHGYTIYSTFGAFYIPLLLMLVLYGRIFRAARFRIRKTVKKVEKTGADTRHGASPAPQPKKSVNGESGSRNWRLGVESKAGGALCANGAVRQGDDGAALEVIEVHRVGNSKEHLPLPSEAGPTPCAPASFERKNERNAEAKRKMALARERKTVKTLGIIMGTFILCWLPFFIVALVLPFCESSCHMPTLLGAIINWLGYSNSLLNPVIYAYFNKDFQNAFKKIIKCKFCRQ

The target of test [4] is T3, Type-1 angiotensin II receptor (Homo sapiens, UniProt P30556).
T3 sequence (P30556 whole entry): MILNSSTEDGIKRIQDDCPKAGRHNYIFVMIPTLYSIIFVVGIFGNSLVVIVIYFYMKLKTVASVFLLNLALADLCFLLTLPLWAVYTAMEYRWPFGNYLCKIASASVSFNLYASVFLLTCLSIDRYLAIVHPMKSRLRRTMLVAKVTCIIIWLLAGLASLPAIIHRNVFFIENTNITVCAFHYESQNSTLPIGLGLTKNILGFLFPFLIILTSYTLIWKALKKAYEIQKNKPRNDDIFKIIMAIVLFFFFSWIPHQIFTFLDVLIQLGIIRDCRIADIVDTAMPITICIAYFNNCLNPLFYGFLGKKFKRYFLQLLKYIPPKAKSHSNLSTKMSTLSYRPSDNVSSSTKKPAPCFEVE

Test [5] has as its target T4, Muscarinic acetylcholine receptor M1 (Homo sapiens, UniProt P11229).
T4 sequence (P11229 whole entry): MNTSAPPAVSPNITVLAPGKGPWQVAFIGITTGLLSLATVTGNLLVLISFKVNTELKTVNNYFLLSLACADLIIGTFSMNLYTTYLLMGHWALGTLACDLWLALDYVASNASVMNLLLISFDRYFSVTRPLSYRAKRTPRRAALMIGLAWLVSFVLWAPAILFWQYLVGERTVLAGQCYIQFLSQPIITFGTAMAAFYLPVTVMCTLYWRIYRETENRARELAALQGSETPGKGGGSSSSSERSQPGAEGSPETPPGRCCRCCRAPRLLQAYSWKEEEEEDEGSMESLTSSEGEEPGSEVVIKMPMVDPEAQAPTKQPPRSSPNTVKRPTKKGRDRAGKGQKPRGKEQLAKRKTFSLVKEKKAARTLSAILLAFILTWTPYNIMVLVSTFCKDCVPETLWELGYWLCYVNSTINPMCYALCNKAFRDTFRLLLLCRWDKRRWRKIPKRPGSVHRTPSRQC
Type of test: functional, cell-based.

Data on four compounds can be found in ChEMBL document CHEMBL5291721, “A preclinical secondary pharmacology resource illuminates target-adverse drug reaction associations of marketed drugs” (Nat Commun, 2023).

The structures appear in SMILES notation. Several values for one entry are separate records, joined by “and”; a condition that tells them apart may be missing. Equal values may be shown once.
Note: assay procedure not described here.

Take `CC(C)OC(=O)CCC/C=C\C[C@@H]1[C@@H](CC[C@@H](O)CCc2ccccc2)[C@H](O)C[C@@H]1O` [LATANOPROST]: the AC50 at Thromboxane A2 receptor [1] and on Thromboxane A2 receptor [2] was more than 10000 nM in each case.

In turn, `COc1ccccc1N1CCN(CCCNc2cc(=O)n(C)c(=O)n2C)CC1` had an AC50 in test [3] of 260 nM.

`CCCCc1ncc(/C=C(\Cc2cccs2)C(=O)O)n1Cc1ccc(C(=O)O)cc1` [EPROSARTAN]: the AC50 in test [4] is 5 nM and 5.5 nM. Regarding `CC(C[N+](C)(C)C)OC(N)=O` (stereo not given) [BETHANECHOL], in test [5], the AC50 came to 26000 nM.

The term AC50 denotes the concentration at which the activity in the assay is half-maximal. Higher therefore signals activity only at high concentration.
